{"source": "patent US20230346770A1", "about": "(priority 2020, published 2023)", "assay": "Phase 1 crossover drug-drug interaction study, plasma pharmacokinetics in healthy adults", "conditions": "for median tmax: both periods", "key": {"[1]": {"conditions": "Treatment B (with clarithromycin), Period 1"}, "[2]": {"conditions": "Treatment B (with clarithromycin), Period 2"}}, "data": [{"smiles": "CNCC[C@@](O)(c1cccc2ccccc12)[C@H](c1ccccc1)c1cc2cc(Br)ccc2nc1OC", "note": "[M2]", "values": [{"measurement": "AUC72h higher in Period 2 as compared to Period 1", "setting": "Treatment A", "result": 41, "unit": "%"}, {"measurement": "AUC240h higher in Period 2 as compared to Period 1", "setting": "Treatment A", "result": 46, "unit": "%"}, {"measurement": "Cmax higher in Period 2 as compared to Period 1", "setting": "Treatment A", "result": 36, "unit": "%"}, {"measurement": "Cmax (mean)", "setting": "Treatment A (single dose 100 mg bedaquiline alone), Period 1, n=8", "result": 12.0, "unit": "ng/mL"}, {"measurement": "Cmax (mean)", "setting": "Treatment A (single dose 100 mg bedaquiline alone), Period 2, n=8", "result": 16.3, "unit": "ng/mL"}, {"measurement": "AUC72 h (mean)", "setting": "Treatment A, Period 1", "result": 637, "unit": "ng·h/mL"}, {"measurement": "AUC240 h (mean)", "setting": "Treatment A, Period 1", "result": 1839, "unit": "ng·h/mL"}, {"measurement": "M/P ratio AUC72 h (M2/bedaquiline, corrected for molecular weight)", "setting": "Treatment A, Period 1", "result": 0.0481}, {"measurement": "M/P ratio AUC240 h (M2/bedaquiline, corrected for molecular weight)", "setting": "Treatment A, Period 1", "result": 0.110}, {"measurement": "M/P ratio Cmax (M2/bedaquiline, corrected for molecular weight)", "setting": "Treatment A, Period 1", "result": 0.00936}, {"measurement": "tmax (median)", "setting": "Treatment A, Period 1", "result": 12.00, "unit": "h"}, {"measurement": "AUC72 h (mean)", "setting": "Treatment A, Period 2", "result": 898, "unit": "ng·h/mL"}, {"measurement": "AUC240 h (mean)", "setting": "Treatment A, Period 2", "result": 2691, "unit": "ng·h/mL"}, {"measurement": "M/P ratio AUC72 h (M2/bedaquiline, corrected for molecular weight)", "setting": "Treatment A, Period 2", "result": 0.0670}, {"measurement": "M/P ratio AUC240 h (M2/bedaquiline, corrected for molecular weight)", "setting": "Treatment A, Period 2", "result": 0.141}, {"measurement": "M/P ratio Cmax (M2/bedaquiline, corrected for molecular weight)", "setting": "Treatment A, Period 2", "result": 0.0142}, {"measurement": "tmax (median)", "setting": "Treatment A, Period 2", "result": 12.00, "unit": "h"}, {"measurement": "median tmax", "setting": "Treatment A", "result": 12.00, "unit": "h"}, {"measurement": "AUC72h higher in Period 2 as compared to Period 1", "setting": "Treatment B", "result": 2.1, "unit": "fold"}, {"measurement": "AUC240h higher in Period 2 as compared to Period 1", "setting": "Treatment B", "result": 2.1, "unit": "fold"}, {"measurement": "Cmax higher in Period 2 as compared to Period 1", "setting": "Treatment B", "result": 2.2, "unit": "fold"}, {"measurement": "Cmax (mean)", "setting": "Treatment B (100 mg bedaquiline on Day 5 of clarithromycin 500 mg q12h Days 1-14), Period 1, n=8", "result": 4.66, "unit": "ng/mL"}, {"measurement": "Cmax (mean)", "setting": "Treatment B (100 mg bedaquiline on Day 5 of clarithromycin 500 mg q12h Days 1-14), Period 2, n=8", "result": 9.89, "unit": "ng/mL"}, {"measurement": "AUC72 h (mean)", "setting": "[1]", "result": 260, "unit": "ng·h/mL"}, {"measurement": "AUC240 h (mean)", "setting": "[1]", "result": 886, "unit": "ng·h/mL"}, {"measurement": "M/P ratio AUC72 h (M2/bedaquiline, corrected for molecular weight)", "setting": "[1]", "result": 0.0183}, {"measurement": "M/P ratio AUC240 h (M2/bedaquiline, corrected for molecular weight)", "setting": "[1]", "result": 0.0460}, {"measurement": "M/P ratio Cmax (M2/bedaquiline, corrected for molecular weight)", "setting": "[1]", "result": 0.0039}, {"measurement": "tmax (median)", "setting": "[1]", "result": 35.92, "unit": "h"}, {"measurement": "AUC72 h (mean)", "setting": "[2]", "result": 543, "unit": "ng·h/mL"}, {"measurement": "AUC240 h (mean)", "setting": "[2]", "result": 1884, "unit": "ng·h/mL"}, {"measurement": "M/P ratio AUC72 h (M2/bedaquiline, corrected for molecular weight)", "setting": "[2]", "result": 0.0347}, {"measurement": "M/P ratio AUC240 h (M2/bedaquiline, corrected for molecular weight)", "setting": "[2]", "result": 0.0881}, {"measurement": "M/P ratio Cmax (M2/bedaquiline, corrected for molecular weight)", "setting": "[2]", "result": 0.00798}, {"measurement": "tmax (median)", "setting": "[2]", "result": 23.90, "unit": "h"}, {"measurement": "median tmax", "setting": "Treatment B (with clarithromycin)", "result": 23.91, "unit": "h"}, {"measurement": "reduction of AUC72h with clarithromycin co-administration", "setting": "Treatment B vs Treatment A", "result": 51, "unit": "%"}, {"measurement": "reduction of AUC240h with clarithromycin co-administration", "setting": "Treatment B vs Treatment A", "result": 42, "unit": "%"}, {"measurement": "reduction of Cmax with clarithromycin co-administration", "setting": "Treatment B vs Treatment A", "result": 52, "unit": "%"}, {"measurement": "reduction of M/P ratio AUC72h with clarithromycin co-administration", "setting": "Treatment B vs Treatment A", "result": 56, "unit": "%"}, {"measurement": "reduction of M/P ratio AUC240h with clarithromycin co-administration", "setting": "Treatment B vs Treatment A", "result": 49, "unit": "%"}, {"measurement": "reduction of M/P ratio Cmax with clarithromycin co-administration", "setting": "Treatment B vs Treatment A", "result": 52, "unit": "%"}, {"measurement": "time of maximum mean plasma concentration", "setting": "both treatment groups", "result": 12, "unit": "hours post-dose"}, {"measurement": "plasma concentration quantifiable until", "setting": "both treatments", "result": 240, "unit": "hours post-dose"}, {"measurement": "pre-dose plasma concentration in Period 2 relative to Cmax after the Period 2 single dose", "setting": "prior to the Period 2 single dose of bedaquiline (carry-over)", "result": "> 10", "unit": "%"}]}]}
